PubChem BioAssay AID1259407 (Chemical Carcinogenesis Research Information System (CCRIS), 2018)
Calls of active or inactive are those of the source. No rule for the calls is given here.

System: CCRIS mutagenicity, Ames/micronucleus/aberration tests
Test: CCRIS mutagenicity studies
[1] = Test System: AMES SALMONELLA TYPHIMURIUM, Strain/Indicator: TA102, Metabolic Activation: NONE, Method: PREINCUBATION
[2] = Test System: AMES SALMONELLA TYPHIMURIUM, Strain/Indicator: TA97, Metabolic Activation: NONE, Method: PREINCUBATION
[3] = Test System: AMES SALMONELLA TYPHIMURIUM, Strain/Indicator: TA98, Metabolic Activation: NONE, Method: PREINCUBATION
[4] = Test System: AMES SALMONELLA TYPHIMURIUM, Strain/Indicator: TA100, Metabolic Activation: NONE, Method: PREINCUBATION
[5] = Test System: AMES SALMONELLA TYPHIMURIUM, Strain/Indicator: TA1535, Metabolic Activation: NONE, Method: PREINCUBATION
[6] = Test System: AMES SALMONELLA TYPHIMURIUM, Strain/Indicator: TA1537, Metabolic Activation: NONE, Method: PREINCUBATION
[7] = Test System: AMES SALMONELLA TYPHIMURIUM, Strain/Indicator: TA1535, Metabolic Activation: NONE, Method: STANDARD PLATE

Cc1ncc(CO)c(CO)c1O
mutagenic call (Test System: AMES SALMONELLA TYPHIMURIUM, Strain/Indicator: TA97A, Metabolic Activation: NONE, Method: PREINCUBATION): inactive; negative | mutagenic call (Test System: AMES SALMONELLA TYPHIMURIUM, Strain/Indicator: TA97A, Metabolic Activation: RAT, LIVER, S-9, AROCLOR 1254, Method: PREINCUBATION): inactive; negative | mutagenic call [1]: inactive; negative | mutagenic call (Test System: AMES SALMONELLA TYPHIMURIUM, Strain/Indicator: TA102, Metabolic Activation: RAT, LIVER, S-9, AROCLOR 1254, Method: PREINCUBATION): inactive; negative

O=S(=O)(O)NC1CCCCC1
mutagenic call (Test System: CHINESE HAMSTER OVARY, Strain/Indicator: CHO-K1-BH4 (HGPRT), Metabolic Activation: NONE, Method: STANDARD PLATE): inactive; negative | mutagenic call (Test System: CHINESE HAMSTER OVARY, Strain/Indicator: CHO-K1-BH4 (HGPRT), Metabolic Activation: RAT, LIVER, S-9, Method: STANDARD PLATE): inactive; negative | mutagenic call (Test System: UDS RODENT HEPATOCYTES, Strain/Indicator: THY INCORP (NON-S-PHASE), Metabolic Activation: NONE, Method: AUTORADIOGRAPHY): inactive; negative

CCCCC(C=O)CC (stereo not given)
mutagenic call (Test System: AMES SALMONELLA TYPHIMURIUM, Strain/Indicator: TA97, Metabolic Activation: HAMSTER, LIVER, S-9, AROCLOR 1254 (10%), Method: PREINCUBATION): inactive; negative | mutagenic call (Test System: AMES SALMONELLA TYPHIMURIUM, Strain/Indicator: TA97, Metabolic Activation: HAMSTER, LIVER, S-9, AROCLOR 1254 (30%), Method: PREINCUBATION): inactive; negative | mutagenic call [2]: inactive; negative | mutagenic call (Test System: AMES SALMONELLA TYPHIMURIUM, Strain/Indicator: TA97, Metabolic Activation: RAT, LIVER, S-9, AROCLOR 1254 (10%), Method: PREINCUBATION): inactive; negative | mutagenic call (Test System: AMES SALMONELLA TYPHIMURIUM, Strain/Indicator: TA97, Metabolic Activation: RAT, LIVER, S-9, AROCLOR 1254 (30%), Method: PREINCUBATION): inactive; negative | mutagenic call (Test System: AMES SALMONELLA TYPHIMURIUM, Strain/Indicator: TA98, Metabolic Activation: HAMSTER, LIVER, S-9, AROCLOR 1254 (10%), Method: PREINCUBATION): inactive; negative | mutagenic call (Test System: AMES SALMONELLA TYPHIMURIUM, Strain/Indicator: TA98, Metabolic Activation: HAMSTER, LIVER, S-9, AROCLOR 1254 (30%), Method: PREINCUBATION): inactive; negative | mutagenic call [3]: inactive; negative | mutagenic call (Test System: AMES SALMONELLA TYPHIMURIUM, Strain/Indicator: TA98, Metabolic Activation: RAT, LIVER, S-9, AROCLOR 1254 (10%), Method: PREINCUBATION): inactive; negative | mutagenic call (Test System: AMES SALMONELLA TYPHIMURIUM, Strain/Indicator: TA98, Metabolic Activation: RAT, LIVER, S-9, AROCLOR 1254 (30%), Method: PREINCUBATION): inactive; negative | mutagenic call (Test System: AMES SALMONELLA TYPHIMURIUM, Strain/Indicator: TA100, Metabolic Activation: HAMSTER, LIVER, S-9, AROCLOR 1254 (10%), Method: PREINCUBATION): inactive; negative | mutagenic call (Test System: AMES SALMONELLA TYPHIMURIUM, Strain/Indicator: TA100, Metabolic Activation: HAMSTER, LIVER, S-9, AROCLOR 1254 (30%), Method: PREINCUBATION): inactive; negative | mutagenic call [4]: inactive; negative | mutagenic call (Test System: AMES SALMONELLA TYPHIMURIUM, Strain/Indicator: TA100, Metabolic Activation: RAT, LIVER, S-9, AROCLOR 1254 (10%), Method: PREINCUBATION): inactive; negative | mutagenic call (Test System: AMES SALMONELLA TYPHIMURIUM, Strain/Indicator: TA100, Metabolic Activation: RAT, LIVER, S-9, AROCLOR 1254 (30%), Method: PREINCUBATION): inactive; negative | mutagenic call (Test System: AMES SALMONELLA TYPHIMURIUM, Strain/Indicator: TA1535, Metabolic Activation: HAMSTER, LIVER, S-9, AROCLOR 1254 (10%), Method: PREINCUBATION): inactive; negative | mutagenic call (Test System: AMES SALMONELLA TYPHIMURIUM, Strain/Indicator: TA1535, Metabolic Activation: HAMSTER, LIVER, S-9, AROCLOR 1254 (30%), Method: PREINCUBATION): inactive; negative | mutagenic call [5]: inactive; negative | mutagenic call (Test System: AMES SALMONELLA TYPHIMURIUM, Strain/Indicator: TA1535, Metabolic Activation: RAT, LIVER, S-9, AROCLOR 1254 (10%), Method: PREINCUBATION): inactive; negative | mutagenic call (Test System: AMES SALMONELLA TYPHIMURIUM, Strain/Indicator: TA1535, Metabolic Activation: RAT, LIVER, S-9, AROCLOR 1254 (30%), Method: PREINCUBATION): inactive; negative

O=C(O)Cc1ccc(O)c(O)c1
mutagenic call (Test System: AMES SALMONELLA TYPHIMURIUM, Strain/Indicator: TA92, Metabolic Activation: NONE, Method: PREINCUBATION): inactive; negative | mutagenic call [2]: inactive; negative | mutagenic call [4]: inactive; negative | mutagenic call [1]: active; positive | mutagenic call (Test System: AMES SALMONELLA TYPHIMURIUM, Strain/Indicator: TA104, Metabolic Activation: NONE, Method: PREINCUBATION): active; positive | mutagenic call [5]: inactive; negative | mutagenic call [6]: inactive; negative | mutagenic call (Test System: CHINESE HAMSTER V-79, Strain/Indicator: V-79/6-THIOGUANINE, Metabolic Activation: NONE, Method: STANDARD PLATE): active; positive

CC(=O)c1cc(N)ccc1OCC(O)CNC(C)(C)C (stereo not given)
mutagenic call [3]: inactive; negative | mutagenic call (Test System: AMES SALMONELLA TYPHIMURIUM, Strain/Indicator: TA98, Metabolic Activation: RAT, LIVER, S-9, PHENOBARBITAL AND 5,6-BENZOFLAVONE (10 OR 50 µL/PLATE), Method: PREINCUBATION): inactive; negative | mutagenic call [4]: inactive; negative | mutagenic call (Test System: AMES SALMONELLA TYPHIMURIUM, Strain/Indicator: TA100, Metabolic Activation: RAT, LIVER, S-9, PHENOBARBITAL AND 5,6-BENZOFLAVONE (10 OR 50 µL/PLATE), Method: PREINCUBATION): inactive; negative | mutagenic call [5]: inactive; negative | mutagenic call (Test System: AMES SALMONELLA TYPHIMURIUM, Strain/Indicator: TA1535, Metabolic Activation: RAT, LIVER, S-9, PHENOBARBITAL AND 5,6-BENZOFLAVONE (10 OR 50 µL/PLATE), Method: PREINCUBATION): inactive; negative | mutagenic call [6]: inactive; negative | mutagenic call (Test System: AMES SALMONELLA TYPHIMURIUM, Strain/Indicator: TA1537, Metabolic Activation: RAT, LIVER, S-9, PHENOBARBITAL AND 5,6-BENZOFLAVONE (10 OR 50 µL/PLATE), Method: PREINCUBATION): inactive; negative | mutagenic call (Test System: E. COLI, Strain/Indicator: WP2 UVRA, Metabolic Activation: NONE, Method: PREINCUBATION): inactive; negative | mutagenic call (Test System: E. COLI, Strain/Indicator: WP2 UVRA, Metabolic Activation: RAT, LIVER, S-9, PHENOBARBITAL AND 5,6-BENZOFLAVONE, Method: PREINCUBATION): inactive; negative

O=C/C(Cl)=C(/Cl)C(=O)O
mutagenic call [7]: active; positive | mutagenic call (Test System: CHINESE HAMSTER OVARY, Strain/Indicator: CHO-KTL3 (HPRT)/6-THIOGUANINE, Metabolic Activation: NONE): active; positive

O=[N+]([O-])c1cccc2nscc12
mutagenic call (Test System: AMES SALMONELLA TYPHIMURIUM, Strain/Indicator: TA98, Metabolic Activation: NONE, Method: STANDARD PLATE): active; positive | mutagenic call (Test System: AMES SALMONELLA TYPHIMURIUM, Strain/Indicator: TA98, Metabolic Activation: S-9, Method: STANDARD PLATE): active; positive | mutagenic call (Test System: AMES SALMONELLA TYPHIMURIUM, Strain/Indicator: TA100, Metabolic Activation: NONE, Method: STANDARD PLATE): active; positive | mutagenic call (Test System: AMES SALMONELLA TYPHIMURIUM, Strain/Indicator: TA100, Metabolic Activation: S-9, Method: STANDARD PLATE (TEST MATERIAL SOLVENT:DMSO)): active; positive | mutagenic call [7]: active; positive | mutagenic call (Test System: AMES SALMONELLA TYPHIMURIUM, Strain/Indicator: TA1535, Metabolic Activation: S-9, Method: STANDARD PLATE): inactive; negative | mutagenic call (Test System: AMES SALMONELLA TYPHIMURIUM, Strain/Indicator: TA1537, Metabolic Activation: NONE, Method: STANDARD PLATE): active; positive | mutagenic call (Test System: AMES SALMONELLA TYPHIMURIUM, Strain/Indicator: TA1537, Metabolic Activation: S-9, Method: STANDARD PLATE): inactive; negative
